In ChEMBL document CHEMBL1201862, “PubChem BioAssay data set” (2004) one finds IC50, AC50 and EC50 data, which are given here for seven compounds.

Assay [1] concerns the target Low molecular weight phosphotyrosine protein phosphatase (Homo sapiens, UniProt P24666). Type of assay: functional. The conditions noted are these: read-out: IC50_Mean.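 Note: Dose-response confirmation assay measuring inhibition of LMPTP enzyme activity by fluorescence intensity read-out.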
Assay [2] concerns the target Hepatocyte nuclear factor 4-alpha (Homo sapiens, UniProt P41235). Type of assay: functional, cell-based.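 Note: biochemical luminescence-based dose-response counterscreen measuring inhibition of HNF4 dimerization, run alongside a screen for blockers of ABHD5–perilipin-5 interaction; split luciferase complementation of HNF4 fusion proteins in cell lysate measuring dimerization.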
The nature of assay [3]: AlphaScreen signal interference compounds, dose response, artefact control for ARNT-TACC3 interaction inhibitor project, biochemical, luminescence, cherry-pick (AID 651705).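 Note: AlphaScreen bead proximity signal that flags compounds interfering with the detection technology; potency reflects signal decrease which marks the compound as an assay artifact.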 Type of assay: functional. Background: Alpha assays give light when donor and acceptor beads are brought close together.
The nature of assay [4]: cytotoxicity in MIN6 insulinoma cells, dose response, cytotoxicity control, cell-based, mouse insulinoma (AID 2122).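 Note: confirmatory high-throughput counterscreen run to flag cytotoxic compounds; mouse MIN-6 beta cells carrying an insulin promoter eGFP reporter.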 Type of assay: functional.
Assay [5] can be described thus: cytotoxicity in HEK-293T NF-kB-Luc cells, dose response, cytotoxicity control for B/T-cell NF-kB inhibitor project, cell-based, uHTS hits (AID 489019).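 Note: IC50 reflects cytotoxicity as loss of cell viability.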 Type of assay: functional.
Another assay has as its system Jurkat. The experiment in a line: antigen receptor-induced NF-kB inhibitors, dose response, Jurkat, luciferase reporter, luminescence, B- and T-cell (AID 489004).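 Note: NF-kB luciferase reporter Jurkat cells stimulated with PMA plus ionomycin.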 Type of assay: functional, cell-based. The note with it: Homo sapiens.
Assay [6] in a line: inhibitors of intracellular T. cruzi replication, confirmation, NIH3T3 host cells, beta-gal luminescence (AID 2044).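 Note: intracellular parasites grown in NIH/3T3 mouse fibroblasts as host cells; luminescent beta-galactosidase reporter signal from transgenic T. cruzi replicating inside host cells; inhibitors lower the luminescence signal.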 Type of assay: functional, cell-based.
The next assay relates to INS1. The experiment in a line: beta cell apoptosis inhibitors, cytokine rescue, dose response, luminescence, retest (AID 449756).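 Note: cell death triggered by IL-1 beta plus TNF-alpha plus IFN-gamma mixture; protective hits raise ATP signal compared with cytokine alone wells.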 The note with it: Rattus norvegicus. Type of assay: functional, cell-based.
A short description of assay [7]: cytotoxicity toward NIH3T3 fibroblasts, dose response, counter-screen, cell-based, ATP luminescence, mouse fibroblasts (AID 2010).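 Note: cells exposed to compound for about 90 hours before reading.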 Type of assay: functional. In general terms: Counterscreens check selectivity or assay interference.
In assay [8] the target is Multidrug resistance protein CDR2 (Candida albicans (strain SC5314 / ATCC MYA-2876) (Yeast), UniProt P78595). The experiment in a line: CaCDR2 efflux pump inhibitors in yeast, dose response, S. cerevisiae AD1-8u, singleplex, Cherry Pick2 set (AID 623994). Type of assay: functional. The note with it: read-out: EC50_MICROM.
Sequence of Multidrug resistance protein CDR2 (P78595 whole entry): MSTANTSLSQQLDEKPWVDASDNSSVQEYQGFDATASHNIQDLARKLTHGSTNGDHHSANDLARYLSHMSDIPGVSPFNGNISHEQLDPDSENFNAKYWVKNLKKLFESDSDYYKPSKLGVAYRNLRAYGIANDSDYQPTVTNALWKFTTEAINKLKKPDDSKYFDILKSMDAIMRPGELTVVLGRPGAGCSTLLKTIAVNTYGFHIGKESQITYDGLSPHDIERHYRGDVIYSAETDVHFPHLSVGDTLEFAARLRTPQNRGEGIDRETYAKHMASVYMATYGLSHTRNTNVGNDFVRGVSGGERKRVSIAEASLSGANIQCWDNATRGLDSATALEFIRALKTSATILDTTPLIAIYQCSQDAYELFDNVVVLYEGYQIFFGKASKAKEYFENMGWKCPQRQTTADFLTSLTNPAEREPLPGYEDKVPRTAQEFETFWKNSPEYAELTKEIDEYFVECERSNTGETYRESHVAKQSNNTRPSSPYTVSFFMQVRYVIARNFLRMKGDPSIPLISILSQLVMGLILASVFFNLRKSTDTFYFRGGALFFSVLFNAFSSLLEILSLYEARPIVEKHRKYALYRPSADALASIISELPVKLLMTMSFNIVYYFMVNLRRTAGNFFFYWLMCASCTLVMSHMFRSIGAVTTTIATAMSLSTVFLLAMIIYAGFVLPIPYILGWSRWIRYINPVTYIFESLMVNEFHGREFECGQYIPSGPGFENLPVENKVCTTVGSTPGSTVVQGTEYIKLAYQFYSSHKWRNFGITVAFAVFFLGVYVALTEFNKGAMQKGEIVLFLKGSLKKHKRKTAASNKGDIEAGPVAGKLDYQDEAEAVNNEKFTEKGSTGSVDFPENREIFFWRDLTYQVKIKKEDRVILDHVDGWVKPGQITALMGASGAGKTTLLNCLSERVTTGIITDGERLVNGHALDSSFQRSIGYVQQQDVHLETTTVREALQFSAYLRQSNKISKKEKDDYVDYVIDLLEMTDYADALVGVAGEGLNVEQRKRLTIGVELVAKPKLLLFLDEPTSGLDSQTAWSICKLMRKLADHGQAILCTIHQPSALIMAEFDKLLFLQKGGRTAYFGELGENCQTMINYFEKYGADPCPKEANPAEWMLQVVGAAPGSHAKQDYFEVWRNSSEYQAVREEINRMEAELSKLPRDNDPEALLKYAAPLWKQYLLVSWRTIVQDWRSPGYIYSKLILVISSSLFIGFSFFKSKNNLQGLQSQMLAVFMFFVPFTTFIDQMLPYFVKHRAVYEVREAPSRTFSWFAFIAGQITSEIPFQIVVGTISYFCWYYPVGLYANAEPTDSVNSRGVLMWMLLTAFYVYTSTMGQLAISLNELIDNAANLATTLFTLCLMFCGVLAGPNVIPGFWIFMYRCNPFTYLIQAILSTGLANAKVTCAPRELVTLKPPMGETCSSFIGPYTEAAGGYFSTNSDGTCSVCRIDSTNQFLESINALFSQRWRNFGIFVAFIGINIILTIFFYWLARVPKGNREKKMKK
A short description of assay [9]: insulin promoter down-regulators in MIN6 cells, imaging, high-content screening, mouse beta cells (AID 1628). Type of assay: functional.
The next assay concerns the target Beta Lactamase (Pseudomonas aeruginosa, UniProt Q932Y6). The assay can be described thus: beta-lactamase reporter inhibitor potency, dose response, artefact control for NOD2-RIPK2 interaction inhibitor project, BLA reporter cells, FRET fluorescence (AID 651552). Type of assay: functional, cell-based.
The nature of assay [10]: Fluorescence-based cell-based high throughput dose response assay for inhibitors of the interaction of nucleotide-binding oligomerization domain containing 2 (NOD2) and the receptor-interacting serine-threonine kinase 2 (RIPK2). The note with it: Homo sapiens. Type of assay: functional.
For assay [11], the target named is T1, Interleukin-8 (Homo sapiens, UniProt P10145). The experiment in a line: Dose Response confirmation of uHTS small molecule hits for cystic fibrosis induced NFkb Inhibitors in a PAF-induced IL8 counterscreen. Type of assay: functional. The note with it: read-out: IC50_Mean.
T1 sequence (P10145 whole entry): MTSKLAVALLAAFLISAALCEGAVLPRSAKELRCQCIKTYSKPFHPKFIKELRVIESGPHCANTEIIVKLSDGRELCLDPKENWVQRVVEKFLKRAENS
Assay [12] addresses T1, Interleukin-8. The assay can be described thus: Dose Response confirmation of uHTS small molecule hits for cystic fibrosis induced NFkb Inhibitors in a TNFa-induced IL8 counterscreen. The conditions noted are these: read-out: IC50_Mean. Type of assay: functional.
Assay [13] addresses T2, ATP-dependent translocase ABCB1 (Homo sapiens, UniProt P08183). The experiment in a line: ABCB1 efflux inhibitor potency, dose response, Jurkat-DNR cells, JC-1, flow cytometry, set 2 (AID 504569).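 Note: potency of pump inhibitors that raise cellular JC-1 green fluorescence up to the nicardipine level.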 Type of assay: functional. The note with it: read-out: EC50_MICROM_.
The target in assay [14] is T2, ATP-dependent translocase ABCB1. The assay can be described thus: ABCG2 efflux pump inhibitor potency, dose response, Ig-MXP3 cells, JC-1, flow cytometry, set 2 (AID 504566).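 Note: flow cytometry median green fluorescence of retained JC-1 dye; potency of efflux pump inhibition measured as rising substrate retention.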 Type of assay: functional. The note with it: read-out: EC50_MICROM_.

Calls of active or inactive are those of the source.

T2 sequence (P08183 whole entry): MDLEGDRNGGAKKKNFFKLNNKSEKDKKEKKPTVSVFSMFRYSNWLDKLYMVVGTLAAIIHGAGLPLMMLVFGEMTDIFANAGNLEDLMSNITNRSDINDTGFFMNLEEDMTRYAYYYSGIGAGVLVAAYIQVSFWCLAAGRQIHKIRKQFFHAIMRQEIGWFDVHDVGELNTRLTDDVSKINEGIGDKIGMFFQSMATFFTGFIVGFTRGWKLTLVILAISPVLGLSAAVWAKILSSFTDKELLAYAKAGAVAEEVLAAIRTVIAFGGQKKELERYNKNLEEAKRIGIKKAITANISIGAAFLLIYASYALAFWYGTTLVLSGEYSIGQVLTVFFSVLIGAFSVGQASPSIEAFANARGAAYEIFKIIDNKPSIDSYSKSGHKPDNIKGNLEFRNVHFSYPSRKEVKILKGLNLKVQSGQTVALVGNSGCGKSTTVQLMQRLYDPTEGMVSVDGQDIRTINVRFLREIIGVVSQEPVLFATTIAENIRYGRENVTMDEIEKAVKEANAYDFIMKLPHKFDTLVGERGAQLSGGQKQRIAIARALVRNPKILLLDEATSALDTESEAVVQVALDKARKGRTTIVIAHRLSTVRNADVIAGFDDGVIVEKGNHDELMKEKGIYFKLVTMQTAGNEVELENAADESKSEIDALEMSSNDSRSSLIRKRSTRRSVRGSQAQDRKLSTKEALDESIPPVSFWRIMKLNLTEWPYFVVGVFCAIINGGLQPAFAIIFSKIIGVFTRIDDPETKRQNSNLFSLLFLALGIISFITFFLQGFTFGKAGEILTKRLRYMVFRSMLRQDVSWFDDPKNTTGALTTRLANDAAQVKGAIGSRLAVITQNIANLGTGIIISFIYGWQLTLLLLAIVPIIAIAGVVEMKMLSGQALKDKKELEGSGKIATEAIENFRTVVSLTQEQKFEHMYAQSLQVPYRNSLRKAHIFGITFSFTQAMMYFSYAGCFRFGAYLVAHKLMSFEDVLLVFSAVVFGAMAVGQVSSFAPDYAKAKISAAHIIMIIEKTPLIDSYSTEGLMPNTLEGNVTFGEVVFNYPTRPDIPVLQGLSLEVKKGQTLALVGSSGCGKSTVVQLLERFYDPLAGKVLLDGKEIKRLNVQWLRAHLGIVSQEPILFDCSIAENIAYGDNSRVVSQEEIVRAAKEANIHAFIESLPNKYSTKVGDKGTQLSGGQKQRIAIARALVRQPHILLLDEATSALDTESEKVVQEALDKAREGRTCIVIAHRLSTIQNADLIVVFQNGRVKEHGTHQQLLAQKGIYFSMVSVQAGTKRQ
Sequence of Beta Lactamase (Q932Y6 whole entry, the tested form may be a part): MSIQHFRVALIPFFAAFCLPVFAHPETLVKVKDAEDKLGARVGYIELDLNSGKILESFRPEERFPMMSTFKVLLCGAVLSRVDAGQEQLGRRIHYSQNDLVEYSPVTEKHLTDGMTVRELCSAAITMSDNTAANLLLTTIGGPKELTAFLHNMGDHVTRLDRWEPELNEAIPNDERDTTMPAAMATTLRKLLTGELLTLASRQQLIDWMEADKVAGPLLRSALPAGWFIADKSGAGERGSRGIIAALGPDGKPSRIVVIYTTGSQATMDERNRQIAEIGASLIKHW
Sequence of Hepatocyte nuclear factor 4-alpha (P41235 whole entry, the tested form may be a part): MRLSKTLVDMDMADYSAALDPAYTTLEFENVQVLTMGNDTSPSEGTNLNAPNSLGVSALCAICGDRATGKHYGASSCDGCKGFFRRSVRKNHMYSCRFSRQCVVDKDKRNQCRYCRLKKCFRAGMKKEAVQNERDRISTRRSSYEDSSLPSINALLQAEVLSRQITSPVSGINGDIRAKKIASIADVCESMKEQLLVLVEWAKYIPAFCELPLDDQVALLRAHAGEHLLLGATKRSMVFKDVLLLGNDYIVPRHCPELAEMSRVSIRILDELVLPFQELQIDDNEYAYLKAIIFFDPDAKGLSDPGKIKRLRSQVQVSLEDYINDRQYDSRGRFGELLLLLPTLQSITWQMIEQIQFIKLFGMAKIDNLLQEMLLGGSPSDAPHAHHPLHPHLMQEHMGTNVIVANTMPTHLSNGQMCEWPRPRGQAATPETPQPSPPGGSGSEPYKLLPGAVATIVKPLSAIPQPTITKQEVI
Sequence of Low molecular weight phosphotyrosine protein phosphatase (P24666 whole entry, the tested form may be a part): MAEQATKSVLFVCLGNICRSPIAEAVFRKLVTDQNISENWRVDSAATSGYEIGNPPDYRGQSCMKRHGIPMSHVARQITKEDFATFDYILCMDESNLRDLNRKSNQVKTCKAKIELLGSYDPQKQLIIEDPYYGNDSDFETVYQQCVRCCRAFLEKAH

For `COC(=O)c1ccc(C(=O)OC)c(NC(=O)Cc2cccs2)c1`, the IC50 in assay [1] is 27.9 µM (inactive).
Regarding `O=C(NC1CCCCC1)C(c1ccc(-c2ccccc2)cc1)n1c(=O)c(-c2ccco2)nc2ccccc21` (configuration not stated), the IC50 in [2] is 2.74 µM (active).
As usually defined, the AC50 is the concentration giving half of the maximal activity seen. Regarding `COCCn1c(-c2ccccc2)cnc1N`, the AC50 in assay [3] is 115 µM (active).
In the case of `NC1=NC[C@H](Cc2ccc(O)cc2)N1CCCCC1CCCCC1`, the IC50 in assay [4] is 4.52 µM (active); in assay [5] it was 67.6 µM (inactive); in the assay on Jurkat, 8.18 µM (active); in assay [9], 3.72 µM (active). Besides, the EC50 in [6] was 1.4 µM (active); in [7], > 60 µM (not active); in assay [8] it was 15.9 µM (active). The half-maximal activity concentration (AC50) with INS1 is 2.43 µM (active).
In the case of `Cc1c(C(=O)Nc2ccccc2)c2ccc(C(F)(F)F)cc2n1O`, the IC50 on Beta Lactamase was 19.4 µM (inactive); in [10], 14.5 µM (inactive).
For `COc1cccc(-c2ccc3ncnc(NCc4cc(C)cs4)c3c2)c1`, the IC50 on Interleukin-8 [11] was 12.4 µM (inactive); at Interleukin-8 [12], 5.37 µM (active).
Regarding `O=C(c1ccoc1)N1CCN(c2cc(-c3ccc(F)cc3)nc3cc(-c4cccc(Cl)c4)nn23)CC1`, the figures for the EC50 in assay [13] and in assay [14] were 5.57 µM (active) and 2.75 µM (active), respectively.
